In US20170182080A1, “FUNCTIONAL SCAFFOLD FOR TISSUE REPAIR AND REGENERATION” (priority 2014, published 2017):

Key:
[1] = tested on: rat adipose derived cells; assay: Ki-67 proliferation marker immunohistochemical staining in 3D TG-Gel culture; type: cell-based
Procedure: 10^6/m1 rat adipose derived cells was suspended in the gelatin-transglutaminase crosslinked gel also referred to TG-Gel. Gel concentrations ranged from 3%, 4.5%, 6%, and 7.5%. A cell suspension in 20 μL volume was transferred in each well of 48 well culture plate followed by incubation at 37° C. for 30 min for gelation. 1.0 ml of medium (10%FBS/DMEM) with 5 nM Aza was added in each well and the plate was placed in a 5% CO2 37° C. incubator for 5 day culture. At day 5, cell proliferation marker (Ki-67) immune histochemical staining was performed on 3D culture. Medium without Aza was used as control.
The detection of Ki67, a proliferation marker, was performed using Anti-Ki-67 (Rabbit Monoclonal antibody, Clone SP6, from Thermo Scientific).

[2] = tested on: rat adipose derived cells; assay: Alkaline phosphatase (ALP) activity, osteogenic differentiation in 3D TG-Gel culture; type: cell-based; conditions: day 5
Procedure: (§1) Using the matrix as described above, the medium was changed to regular growth medium at day 5 and maintained for 14 days. Alkaline phosphatase (ALP) activity and staining were performed to characterize early osteogenesis at day 5 and calcium staining at day 14. ALP activity was determined by biochemical assay based on conversion of p-nitrophenyl phosphate to p-nitrophenol (pNPP), which was measured spectrophotometrically at 405 nm absorbance. Briefly, TG-Gel-Cell, a transglutaminase crosslinked gelatin gel and cell mixture, construct was washed twice with PBS and homogenized with buffer solution (0.25% TritonX-100 in PBS). After three freezing-thawing cycles, cells were released from TG-Gel by adding 50 μL of 0.25% trypsin and incubated at 37° C. for 4 hours. ALP activity was then quantified by using p-NPP as a substrate (Pierce, USA). The absorbance was measured by a multiplate reader (Molecular Devices, CA) after 30 minutes of incubation at 37° C. The ALP activity was specified as an arbitrary unit of ALP absorbance that normalized with cell numbers. Alizarin Red S staining as late marker of osteogenic differentiation was performed to determine the degree of calcium deposition as described. […] The supernatant was collected and absorbance was measured by a multiplate reader (Molecular Devices, CA).

[3] = tested on: rat adipose derived cells; assay: Alizarin Red S calcium deposition, osteogenic differentiation in 3D TG-Gel culture; type: cell-based; conditions: day 14
Procedure: as §1, with “CA). […]” for “CA).”

adipose cell 3D culture = assay: Anti-MyoD staining, myogenesis differentiation in adipose cell 3D culture; type: cell-based; conditions: w/AZA-CR
From the text: A myogenic marker such as MyoD was stained on day 14 adipose cell 3D culture. The anti-MyoD antibody is a monoclonal available from Pierce.

MSC or adipose cells = assay: Anti-N-cadherin staining, cardiomyocyte differentiation; type: cell-based; conditions: w/AZA-CR; 4.5% TG-Gel
Fisher rats = assay: Cartilage defect model (osteochondral defect in trochlear groove), histology; type: in vivo, rat; conditions: 4.5% Tg-Gel + 50 μL Aza (500 nM) implanted in defect; at 7 days; cell morphology resembles chondrogenic cells
Procedure: (§2) Fisher rats (7-8-weeks old, 200-250 g each) were used in this study. They were randomly enrolled into two experimental groups,A, 4.5% Tg-Gel +50 μL PBS and B, 4.5% Tg-Gel +50 μL Aza (500 nM), 4 animals per group. A 3-mm diameter×2-mm deep osteochondral defect was drilled into the rat trochlear groove, using a dermal biopsy punch (Miltex, Inc.). Implant gel was placed in the defect area. Skin was closed with 4-0 suture. […]
as §2, with “Tg-Gel+50” for “Tg-Gel +50”, “diamete×2-mm” for “diameter×2-mm”

[4] = tested on: >8 month old retired rats; assay: Cranial defect model, bone growth and healing by histology; type: in vivo, rat; conditions: 500 nM Aza in collagen sponge; 5 mm skull defect; no exogenous BMP-2; four weeks
Procedure: Collagen matrix (as described above) was prepared and cut into 5 mm discs. An 5 mm diameter circular opening was created in the skull of >8 month old retired rats using circular drill bit including a lip to restrict the depth of the circular cutting. 500 nM of Aza was applied directly into the collagen sponge before implantation. Control included collagen discs without added Aza-CR but same volume of PBS. After four weeks of implantation, bone growth and healing status were evaluated histologically.

Nc1ncn([C@@H]2O[C@H](CO)[C@@H](O)[C@H]2O)c(=O)n1 [AZA-CR, 5-azacytidine]
Ki67 positive staining, Aza group versus control ([1]; 3%-4.5% gel condition): no difference
Ki67 positive staining, Aza group versus control ([1]; 6%-7% gel condition, evenly distributed in whole 3D construct): significantly more positive stained cells
Anti - Ki67, Center ([1]; w/AZA-CR (5 nM Aza in medium), 4.5% TG-Gel, day 5): ~30%
Anti - Ki67, Center and Peripheral (evenly distributed) ([1]; w/AZA-CR (5 nM Aza in medium), 6% TG-Gel, day 5): Evenly distributed (~80%)
Anti - Ki67, Center and Peripheral (evenly distributed) ([1]; w/AZA-CR (5 nM Aza in medium), 7.5% TG-Gel, day 5): Evenly distributed (~50%)
ALP activity ([2]; versus without AZA-CR): enhanced
TG-Gel concentration at which ALP peaked ([2]; with and without AZA-CR): 6 % TG-Gel
calcium deposition ([3]; versus without AZA-CR): enhanced
TG-Gel concentration at which calcium deposition peaked ([3]; with and without AZA-CR): 9 % TG-Gel
Anti-MyoD on day 14, Center and Peripheral (evenly distributed) (adipose cell 3D culture; 4.5% TG-Gel): ~80% Evenly Distributed
Anti-MyoD on day 14, Center and Peripheral (evenly distributed) (adipose cell 3D culture; 6% TG-Gel): ~70% Evenly Distributed
Anti-N-Cadherin, Center (MSC or adipose cells): ~50%
histology of osteochondral defect site, area adjacent to subchondral bone (Fisher rats): neo cell infiltration
bone remodeling at the bony defect site [4]: significant bone remodeling
